{"source": "ChEMBL document CHEMBL1649121", "about": "“Giardia, Entamoeba, and Trichomonas enzymes activate metronidazole (nitroreductases) and inactivate metronidazole (nitroimidazole reductases)” (Antimicrob Agents Chemother, 2009)", "key": {"[1]": {"test_system": "Escherichia coli", "assay": "Ratio of EC50 for Escherichia coli JM109 transformed with empty vector PQE30 to EC50 for Escherichia coli JM109 transformed with Entamoeba histolytica NTR1", "format": "functional"}, "[2]": {"test_system": "Escherichia coli", "assay": "Antimicrobial activity against Escherichia coli JM109 transformed with Entamoeba histolytica NTR2 after 16 hrs", "format": "functional, organism-based", "details": "JM109, JM 109, 16 h"}, "[3]": {"test_system": "Escherichia coli", "assay": "Antimicrobial activity against Escherichia coli JM109 transformed with Trichomonas vaginalis nim1 after 16 hrs", "format": "functional, organism-based", "details": "JM109, JM 109, 16 h"}, "[4]": {"test_system": "Escherichia coli", "assay": "Antimicrobial activity against Escherichia coli JM109 transformed with Entamoeba histolytica nim1 after 16 hrs", "format": "functional, organism-based", "details": "JM109, JM 109, 16 h"}, "[5]": {"test_system": "Giardia duodenalis", "assay": "Activity of Giardia lamblia NTR at 50 uM"}, "[6]": {"test_system": "Escherichia coli", "assay": "Ratio of EC50 for Escherichia coli JM109 transformed with empty vector PQE30 to EC50 for Escherichia coli JM109 transformed with Trichomonas vaginalis nim1", "format": "functional"}, "[7]": {"test_system": "Escherichia coli", "assay": "Ratio of EC50 for Escherichia coli JM109 transformed with empty vector PQE30 to EC50 for Escherichia coli JM109 transformed with Entamoeba histolytica nim1", "format": "functional"}, "[8]": {"test_system": "Entamoeba histolytica", "assay": "Activity of Entamoeba histolytica NTR2 at 50 uM"}, "[9]": {"test_system": "Entamoeba histolytica", "assay": "Activity of Entamoeba histolytica NIM1"}, "[10]": {"test_system": "Escherichia coli", "assay": "Ratio of EC50 for Escherichia coli JM109 transformed with empty vector PQE30 to EC50 for Escherichia coli JM109 transformed with Entamoeba histolytica NTR2", "format": "functional"}, "[11]": {"test_system": "Escherichia coli", "assay": "Antimicrobial activity against Escherichia coli JM109 transformed with empty vector PQE30 after 16 hrs", "format": "functional, organism-based", "details": "JM109, JM 109, 16 h"}, "[12]": {"test_system": "Trichomonas vaginalis", "assay": "Activity of Trichomonas vaginalis NTR8 at 50 uM"}, "[13]": {"test_system": "Entamoeba histolytica", "assay": "Activity of Entamoeba histolytica NTR3 at 50 uM"}, "[14]": {"test_system": "Entamoeba histolytica", "assay": "Activity of Entamoeba histolytica NTR1 at 50 uM"}, "[15]": {"test_system": "Escherichia coli", "assay": "Antimicrobial activity against Escherichia coli JM109 transformed with Entamoeba histolytica NTR1 after 16 hrs", "format": "functional, organism-based", "details": "JM109, JM 109, 16 h"}}}
{"molecule": "Cc1ncc([N+](=O)[O-])n1CCO", "note": "[METRONIDAZOLE]", "values": [{"measurement": "Ratio EC50", "setting": "[1]", "value": 3}, {"measurement": "EC50", "setting": "[2]", "value": 8, "unit": "µg/mL"}, {"measurement": "EC50", "setting": "[3]", "value": 500, "unit": "µg/mL"}, {"measurement": "EC50", "setting": "[4]", "value": 750, "unit": "µg/mL"}, {"measurement": "Km", "setting": "[5]", "value": 0.206, "unit": "µM"}, {"measurement": "Vmax", "setting": "[5]", "value": 0.347, "unit": "µmol/min"}, {"measurement": "Ratio EC50", "setting": "[6]", "value": 20}, {"measurement": "Ratio EC50", "setting": "[7]", "value": 30}, {"measurement": "Km", "setting": "[8]", "value": 0.081, "unit": "µM"}, {"measurement": "Vmax", "setting": "[8]", "value": 0.031, "unit": "µmol/min"}, {"measurement": "Vmax", "setting": "[9]", "value": 0.057, "unit": "µmol/min"}, {"measurement": "Ratio EC50", "setting": "[10]", "value": 3}, {"measurement": "EC50", "setting": "[11]", "value": 25, "unit": "µg/mL"}, {"measurement": "Km", "setting": "[12]", "value": 0.078, "unit": "µM"}, {"measurement": "Vmax", "setting": "[12]", "value": 0.329, "unit": "µmol/min"}, {"measurement": "Km", "setting": "[13]", "value": 0.083, "unit": "µM"}, {"measurement": "Vmax", "setting": "[13]", "value": 0.014, "unit": "µmol/min"}, {"measurement": "Km", "setting": "[14]", "value": 0.067, "unit": "µM"}, {"measurement": "Vmax", "setting": "[14]", "value": 0.027, "unit": "µmol/min"}, {"measurement": "EC50", "setting": "[15]", "value": 7, "unit": "µg/mL"}]}
